{"source": "paper PMC9385451", "about": "(International Journal for Parasitology: Drugs and Drug …, 2022)", "target": "T1, Eimeria tenella aldolase 2 (EtALD2), fructose-1,6-bisphosphate aldolase (Eimeria tenella, UniProt U6KYI1)", "T1 sequence (U6KYI1 1-368)": "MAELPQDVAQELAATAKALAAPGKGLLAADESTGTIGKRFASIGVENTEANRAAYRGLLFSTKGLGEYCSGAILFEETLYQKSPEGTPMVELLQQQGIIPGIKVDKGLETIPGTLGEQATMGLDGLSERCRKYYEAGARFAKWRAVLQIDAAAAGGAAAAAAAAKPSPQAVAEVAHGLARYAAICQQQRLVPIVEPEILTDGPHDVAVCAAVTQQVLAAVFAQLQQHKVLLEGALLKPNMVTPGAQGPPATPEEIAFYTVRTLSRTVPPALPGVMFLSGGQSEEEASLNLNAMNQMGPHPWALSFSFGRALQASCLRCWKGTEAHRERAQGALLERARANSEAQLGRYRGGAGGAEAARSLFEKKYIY", "type": "biochemical"}
{"smiles": "O=c1c(O)c(-c2ccc(O)cc2O)oc2cc(O)cc(O)c12", "note": "[morin]", "values": [{"measurement": "IC50", "value": 10.4, "unit": "µM"}]}
